# In paper PMC9822369, “Synthesis, Biological Evaluation, DNA Binding, and Molecular Docking of Hybrid 4,6-Dihydrazone Pyrimidine Derivatives as Antitumor Agents” (Molecules, 2022):
# What was measured:
# [1] = biological target: epidermal growth factor receptor kinase; set-up: method as in PMID 30633509; conditions: dual epidermal growth factor receptor kinase and microtubule inhibitor; cited from earlier work
# [2] = system: BGC-823 cells; experiment: MTT cytotoxicity assay, BGC-823 cells; type: cell-based; conditions: Homo sapiens, 48 h, read-out: IC50 against BGC-823
# Procedure: (§1) The MTT method is often used to detect the cytotoxicity of compounds in vitro [64]. The cytotoxicity of 10a–10f was evaluated by MTT assay against BGC-823, BEL-7402, MCF-7, and A549 tumor cells. HL-7702 was selected to evaluate the safety of 10a–10f against human normal cells. 5-FU was also evaluated as a positive control. The well-grown cells were inoculated in 96-well plates at a density of 3000 cells/well and incubated in 37 °C for 24 h. The negative control group, blank control group, and administration group were set up. The cells were incubated with a gradient concentration (1.25, 2.5, 5, 10, and 20 μg/mL) of samples or 5-FU for 48 h. Then, 20 μL MTT solution (5 mg/mL) was added to each well. After the cells were incubated for 4 h, 150 μL DMSO was added to each well before testing. The absorbance was measured at 570 nm with a microplate reader. The inhibition rate and final IC50 values were calculated according to the following formula. The values shown are the average of at least three parallel trials. Inhibition rate (%) =1 − (ODsample − ODblank)/(ODnegative − ODblank) × 100%.
# [3] = system: BEL-7402 cells; experiment: MTT cytotoxicity assay, BEL-7402 cells; type: cell-based; conditions: Homo sapiens, 48 h, read-out: IC50 against BEL-7402
# Procedure: as §1
# [4] = system: HL-7702 cells; experiment: MTT cytotoxicity assay, normal cells HL-7702; type: cell-based; conditions: L02, 48 h, normal human hepatocytes, read-out: IC50 against HL-7702
# Procedure: as §1
# [5] = system: MCF-7 cells; experiment: MTT cytotoxicity assay, MCF-7 cells; type: cell-based; conditions: Homo sapiens, MCF7, 48 h, read-out: IC50 against MCF-7
# Procedure: as §1
# [6] = system: A549 cells; experiment: MTT cytotoxicity assay, A549 cells; type: cell-based; conditions: Homo sapiens, 48 h, read-out: IC50 against A549
# Procedure: as §1
# [7] = system: CT-DNA; experiment: UV/Vis absorbance titration with CT-DNA; type: binding; conditions: hyperchromic effects at 205 nm and 260 nm, no wavelength shift
# Procedure: The binding patterns of 10a and 10f with CT-DNA were measured by UV/Vis spectroscopy in Tris-HCl buffer (0.05 M Tris-HCl/0.1 M NaCl, pH 7.4). The stock solution concentrations of both 10a and 10f in DMSO were 10^−3 M. CT-DNA was dissolved in Tris-HCl buffer and stored at 4 °C for use. The stock solution concentration of CT-DNA was determined by UV/Vis absorbance at 260 nm with the extinction coefficient 6600 M^−1·cm^−1 [67]. Tris-HCl buffer was used as a blank to make preliminary adjustments. Absorbance titration experiments were performed at room temperature with the concentrations of 10a and 10f at 0.1 µM, varying the concentrations of CT-DNA (0.2, 0.4, 0.6, 0.8, and 1 µM). The solution was allowed to equilibrate for 2–3 h before measurement. UV/Vis absorption spectra were recorded in the range of 200–400 nm. The binding constant was calculated according to the following equation [54]: […]=[DNA]/(εb−εf)+1/Kb(εb−εf), where εa corresponds to the observed extinction coefficient (A/[DNA]), εf corresponds to the extinction coefficient of the free compound, and εb is the extinction coefficient of the compound when fully bound to CT-DNA. [DNA] is the concentration of CT-DNA added to the compound. The Kb values of 10a and 10f were calculated from the slope to intercept ratio, which was obtained by plotting a graph of [DNA]/(εa − εf) versus [DNA].
# [8] = system: BGC-823 cells; experiment: AO/EB double staining; type: cell-based, Human; conditions: BGC-823, 0.5 IC50, IC50, 1.5 IC50, 24 h
# Procedure: AO (500 μL, 1 mg/mL) and EB (500 μL, 1 mg/mL) were mixed, and then 4 mL PBS was added to the above solution to form AO/EB dye […]. AO/EB dye (100 μL) was added to each well. After incubating for 3–5 min and washing twice with cold PBS, BGC-823 cells were observed immediately under an inverted fluorescence microscope.
# [9] = system: CT-DNA; experiment: Circular dichroism spectra of CT-DNA; type: binding; conditions: CT-DNA 600 μM, compound 100 μM, Tris-HCl pH 7.4
# Procedure: The CD spectra of CT-DNA in the absence and presence of 10a or 10f were measured after equilibrating for 1 h in a 1 mm diameter quartz colorimeter at room temperature. The concentration of CT-DNA was fixed at 600 μM in each sample. Both 10a and 10f were added to the above CT-DNA solution at a concentration of 100 μM, respectively. The scanning speed was 200 nm/min. The spectra were scanned on an average of six times in the range of 200–400 nm. All measurements were performed in 0.05 M Tris-HCl buffer (pH 7.4).
# [10] = system: BGC-823 cells; experiment: ROS detection (DCFH-DA) by flow cytometry; type: cell-based, Human; conditions: 24 h
# Procedure: According to the instructions of ROS Detection Kit (Solarbio, Beijing, China), in situ probe loading was adopted. ROS intensity changes were determined by inverted fluorescence microscopy and flow cytometry. The whole experiment was carried out under dark conditions.
# [11] = system: DNA; set-up: method as in PMID 3427013; conditions: classical intercalator; cited from earlier work
Structure (SMILES),IC50 [1] [µM],IC50 [2] [µM],IC50 [3] [µM],IC50 [4] [µM],IC50 [5] [µM],IC50 [6] [µM],interaction mode with DNA (absorption spectra) [7],apoptosis by AO/EB double staining (morphology) [8],change of positive (279 nm) and negative (247 nm) CD bands of CT-DNA [9],"ROS fluorescence intensity (DCF) ([10]; BGC-823, 4 μM)","ROS fluorescence intensity (DCF) ([10]; BGC-823, 8 μM)",binding constant with DNA [11]
COc1cc(Nc2ncnc3cc(-c4ccc(C)cc4)sc23)cc(OC)c1OC [Compound 2],0.03,,,,,,,,,,,
"O=c1[nH]cc(F)c(=O)[nH]1 [Compound 5-FU, 5-fluorouracil, reference compound]",,15.18 ± 0.05,15.81 ± 0.01,20.83 ± 0.05,11.3 ± 0.78,11.8 ± 0.89,,,,,,
"Brc1cccc(/C=N/Nc2cc(N/N=C/c3cccc(Br)n3)ncn2)n1 [Compound 10a, 4,6-Bis(2-((E)-(6-bromopyridin-2-yl)methylene)hydrazinyl)pyrimidine]",,9 ± 0.6,6.7 ± 0.4,> 100,22.93 ± 0.16,26.96 ± 0.14,groove binding and partial intercalation,induce apoptosis of BGC-823 cells in a dose-dependent manner,decreased in intensity,,,
"C(=N\Nc1cc(N/N=C/c2ccccn2)ncn1)/c1ccccn1 [Compound 10b, 4,6-Bis(2-((E)-pyridin-2-ylmethylene)hydrazinyl)pyrimidine]",,20.9 ± 0.82,15 ± 2,38.4 ± 0.58,39.8 ± 1.18,27.3 ± 0.86,,,,,,
"Cc1cccc(/C=N/Nc2cc(N/N=C/c3cccc(C)n3)ncn2)n1 [Compound 10c, 4,6-Bis(2-((E)-(6-methylpyridin-2-yl)methylene)hydrazinyl)pyrimidine]",,26.21 ± 0.1,29.5 ± 0.61,60.51 ± 0.21,24 ± 0.43,37.3 ± 2.3,,,,,,
"Brc1cccc(/C=N/Nc2cc(N/N=C/c3cccc(Br)n3)nc(-c3ccccc3)n2)n1 [Compound 10d, 4,6-Bis(2-((E)-(6-bromopyridin-2-yl)methylene)hydrazinyl)-2-phenylpyrimidine]",,20.8 ± 2.69,22.5 ± 2.83,> 100,27.6 ± 0.45,47.1 ± 0.8,,,,,,
"C(=N\Nc1cc(N/N=C/c2ccccn2)nc(-c2ccccc2)n1)/c1ccccn1 [Compound 10e, 4,6-Bis(2-((E)-pyridin-2-ylmethylene)hydrazinyl)-2-phenylpyrimidine]",,17.7 ± 0.24,20.2 ± 1.43,> 100,15.7 ± 2,30.3 ± 0.65,,,,,,
"Cc1cccc(/C=N/Nc2cc(N/N=C/c3cccc(C)n3)nc(-c3ccccc3)n2)n1 [Compound 10f, 4,6-Bis(2-((E)-(6-methylpyridin-2-yl)methylene)hydrazinyl)-2-phenylpyrimidine]",,7.89 ± 0.78,7.66 ± 0.55,> 100,10.6 ± 0.14,37.7 ± 1.37,groove binding and partial intercalation,induce apoptosis of BGC-823 cells in a dose-dependent manner,decreased in intensity,27.6,32.2,
"CC[n+]1c(-c2ccccc2)c2cc(N)ccc2c2ccc(N)cc21 [EB, Ethidium bromide]",,,,,,,,,,,,~10^7 M^−1
